Experimental findings from patent US9580390B2, “Indazole compounds as kinase inhibitors and method of treating cancer with same” (University Health Network, priority 2011, dated 2017) are described below.

Test [1] relates to Breast cancer cells. Put plainly: Cancer cell line growth inhibition (SRB assay). Type of test: cell-based. The note with it: Homo sapiens; MDA-MB-468; read-out: Cancer Cell Line GI50 Range MDA-MB-468. (Sulforhodamine B stains cellular protein and so reports cell mass.)
Test [2] deals with ovarian cancer cells (PA-1). Description: Cancer cell line growth inhibition (SRB assay). The class given is cell-based. The following applies: Homo sapiens, PA-1; read-out: Cancer Cell Line GI50 Range PA-1.
The target in test [3] is T1, human TTK (Homo sapiens, UniProt P33981).
T1 construct: amino terminal GST fusion of full length human TTK; purchased Invitrogen
T1 sequence (P33981 1-857): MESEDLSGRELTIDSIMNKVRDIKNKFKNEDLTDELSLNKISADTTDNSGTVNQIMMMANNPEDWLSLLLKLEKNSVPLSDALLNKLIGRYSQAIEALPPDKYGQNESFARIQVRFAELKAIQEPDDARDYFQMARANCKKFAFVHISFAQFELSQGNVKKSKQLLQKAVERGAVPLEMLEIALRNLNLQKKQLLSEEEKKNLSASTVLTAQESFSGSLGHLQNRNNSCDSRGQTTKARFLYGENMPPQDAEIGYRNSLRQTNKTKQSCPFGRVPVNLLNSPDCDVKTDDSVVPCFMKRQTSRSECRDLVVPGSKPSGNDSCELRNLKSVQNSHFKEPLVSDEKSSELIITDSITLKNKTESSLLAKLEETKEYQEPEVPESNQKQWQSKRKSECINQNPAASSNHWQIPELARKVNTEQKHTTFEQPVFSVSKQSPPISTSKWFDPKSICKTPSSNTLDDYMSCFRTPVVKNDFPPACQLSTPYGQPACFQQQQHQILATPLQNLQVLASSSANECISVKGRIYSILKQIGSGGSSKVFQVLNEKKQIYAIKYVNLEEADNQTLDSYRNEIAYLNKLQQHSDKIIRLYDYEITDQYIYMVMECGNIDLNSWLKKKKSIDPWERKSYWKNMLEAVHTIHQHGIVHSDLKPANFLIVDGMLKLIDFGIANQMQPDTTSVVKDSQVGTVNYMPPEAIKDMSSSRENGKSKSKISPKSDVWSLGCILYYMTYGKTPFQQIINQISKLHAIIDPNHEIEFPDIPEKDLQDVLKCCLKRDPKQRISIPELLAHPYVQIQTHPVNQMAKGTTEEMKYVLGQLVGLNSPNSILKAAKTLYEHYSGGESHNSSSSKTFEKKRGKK
Description: TTK inhibition assay (indirect ELISA). Type of test: biochemical. The following applies: read-out: TTK IC50 Range. On the technique in general: An ELISA detects its analyte on a solid surface through an enzyme-linked reagent.

Test [4] concerns colon cancer cells (HCT116). Put plainly: Cancer cell line growth inhibition (SRB assay). Type of test: cell-based. The note with it: Homo sapiens, HCT-116; read-out: Cancer Cell Line GI50 Range HCT116.

As usually defined, the GI50 is the concentration giving 50% growth inhibition. By IC50 is commonly meant the concentration that gives 50% inhibition. Turning to `Cc1cc(=O)n(C)c2ccc(-c3n[nH]c4ccc(C(=O)NCC5(N6CCOCC6)CCCCC5)cc34)cc12` [Example A491, 3-(1,4-dimethyl-2-oxo-1,2-dihydroquinolin-6-yl)-N-((1-morpholinocyclohexyl)methyl)-1H-indazole-5-carboxamide], the GI50 in test [1], in test [2] and in test [4] was above 500 nM in each case. The IC50 in test [3] is below 100 nM.
With `O=C(N[C@@H](c1ccsc1)C1CC1)c1ccc2[nH]nc(-c3ccc(OC4CCN(C[C@@H](O)C(F)(F)F)CC4)cc3)c2c1` [Example A224, N-((R)-cyclopropyl(thiophen-3-yl)methyl)-3-(4-((1-((R)-3,3,3-trifluoro-2-hydroxypropyl)piperidin-4-yl)oxy)phenyl)-1H-indazole-5-carboxamide], the GI50 in test [1] is above 500 nM; in test [2] it was 100 to 500 nM; in test [4], 100 to 500 nM. Further, the IC50 in test [3] is below 100 nM.
As for `CCC(CC)(CNC(=O)c1ccc2[nH]nc(-c3ccc(N4CCN(C)CC4)cc3)c2c1)c1ccccc1` [Example A441, N-(2-ethyl-2-phenylbutyl)-3-(4-(4-methylpiperazin-1-yl)phenyl)-1H-indazole-5-carboxamide], the GI50 in test [1], in test [2] and in test [4] was 100 to 500 nM throughout. In test [3], the IC50 was below 100 nM.
For the compound `O=C(N[C@H](c1ccccn1)C1CC1)c1ccc2[nH]nc(-c3ccc4c(c3)C(=O)CCO4)c2c1` [Example A241], the concentration for 50% growth inhibition (GI50) in test [1], in test [2] and in test [4] was above 500 nM each time. Also, in test [3], the half-maximal inhibitory concentration (IC50) was below 100 nM.
For the compound `CN1CCC(Oc2ccc(-c3n[nH]c4ccc(C(=O)NC(c5ccccn5)C(C)(C)C)cc34)cc2)CC1` (stereo not drawn) [Example A388], the GI50 in test [1] was above 500 nM; in test [2], 100 to 500 nM; in test [4], 100 to 500 nM. The concentration for half-maximal inhibition (IC50) in test [3] is below 100 nM.
For the compound `CN1CCC(Oc2ccc(-c3n[nH]c4ccc(C(=O)NC(c5ccccn5)C5CCCCC5)cc34)cc2)CC1` (stereo not drawn) [Example A409, N-(cyclohexyl(pyridin-2-yl)methyl)-3-(4-((1-methylpiperidin-4-yl)oxy)phenyl)-1H-indazole-5-carboxamide], the 50% growth inhibitory concentration (GI50) in test [1], in test [2] and in test [4] was 100 to 500 nM throughout. For the same compound, the IC50 in test [3] is below 100 nM.
Regarding `O=C(NC(c1ccccc1)C1CCC1)c1ccc2[nH]nc(-c3ccc(O[C@H]4C[C@H]5CC[C@@H](C4)N5C4COC4)cc3)c2c1` (stereo partly drawn) [Example A345, N-(cyclobutyl(phenyl)methyl)-3-(4-(((1R,3R,5S)-8-(oxetan-3-yl)-8-azabicyclo[3.2.1]octan-3-yl)oxy)phenyl)-1H-indazole-5-carboxamide], the GI50 in test [1], in test [2] and in test [4] was 100 to 500 nM in each case. The half-inhibitory concentration (IC50) in test [3] was below 100 nM.
As for `CC1=CC(C)(C)Oc2ccc(-c3n[nH]c4ccc(C(=O)N[C@H](c5ccccn5)C5CC5)cc34)cc21` [Example A237, (S)-N-(cyclopropyl(pyridin-2-yl)methyl)-3-(2,2,4-trimethyl-2H-chromen-6-yl)-1H-indazole-5-carboxamide], the GI50 in test [1], in test [2] and in test [4] was above 500 nM in each case. In addition, in test [3], the half-inhibitory concentration (IC50) is below 100 nM.
Turning to `O=C(NCC1(c2ccncc2)CC1)c1ccc2[nH]nc(-c3ccc(N4CCOCC4)cc3)c2c1` [Example A464, 3-(4-morpholinophenyl)-N-((1-(pyridin-4-yl)cyclopropyl)methyl)-1H-indazole-5-carboxamide], the GI50 in test [1] is above 500 nM; in test [2], 100 to 500 nM; in test [4], above 500 nM. In addition, in test [3], the IC50 lay in the range of 100 to 500 nM.
